Reference: the OPERA property sets (Mansouri et al. 2018)

Details: not given
For `Cc1ccccc1S`, the boiling point was 195 °C, the log10 vapour pressure (mmHg) was -0.193 and the melting point was 15 °C.
For `O=[N+]([O-])c1ccc(Cl)cc1C(F)(F)F`, the ready biodegradability was “not readily biodegradable”.
In the case of `C[C@H](N[C@@H](C)c1ccccc1)c1ccccc1`, the boiling point is reported as 296 °C.
`CB(C)N(C)C` gave a boiling point of 65 °C and a melting point of -92 °C.
`CNC(=O)Oc1ccc2c(c1)[C@]1(C)CCN(C)OC1N2C` (some centres not stated) showed a melting point of 129 °C.
Compound `CCC1OCC(COc2ccc(Oc3ccccc3)cc2)O1` (configuration not stated) has a log10 vapour pressure (mmHg) of -6.08.
`Cc1ccnc(NS(=O)(=O)c2ccc(N)cc2)n1` gave a melting point of 236 °C.
`COc1ccccc1[N+](=O)[O-]` gave a boiling point of 277 °C, a log10 vapour pressure (mmHg) of -2.44 and a melting point of 10.5 °C. The ready biodegradability was “not readily biodegradable”.
In the case of `COc1ccc(C(C)=O)cc1OC`, the boiling point is reported as 287 °C and the melting point is reported as 51 °C.
Work on `CCCCCCNC(=O)c1ccc(O)c(O)c1` yielded a melting point of 140 °C.
Compound `CC1CC1C` (configuration not stated) has a boiling point of 32.6 °C and a melting point of -145 °C.
In the case of `CCCCC=O`, the boiling point is reported as 103 °C, the log10 Henry constant (atm·m³/mol) is reported as -3.83 and the log10 vapour pressure (mmHg) is reported as 1.42. For the same compound, the melting point was -91.5 °C.
`CN(C)C(=O)Nc1ccc(Oc2ccc(Cl)cc2)cc1` gave a log10 Koc (L/kg) of 3.55, a log10 vapour pressure (mmHg) of -8.41 and a melting point of 151 °C. For the same compound, the ready biodegradability was “not readily biodegradable”.
In the case of `CC=CCCCC`, the log10 vapour pressure (mmHg) is reported as 1.68.
For `CCCCCCCCC=CCCCCCCCC(=O)OCCCC`, the ready biodegradability was “readily biodegradable”.
In the case of `CCc1cccs1`, the boiling point is reported as 134 °C and the log10 vapour pressure (mmHg) is reported as 1.05.
With `CCOC(=O)C(Cl)CCl` (configuration not stated) the boiling point was 184 °C.
With `CC(=O)OC1CC(C)OC(C)O1` (configuration not stated) the ready biodegradability was “readily biodegradable”.
`CN1[C@@H]2CCC[C@H]1CC2` showed a boiling point of 166 °C.
Work on `Cc1ccccc1C=Cc1ccccc1C` yielded a melting point of 83 °C.
In the case of `O=C(Cl)C(Cl)(Cl)Cl`, the boiling point is reported as 118 °C, the log10 Henry constant (atm·m³/mol) is reported as -3.29 and the log10 vapour pressure (mmHg) is reported as 1.33.
With `c1ccc2c(c1)ccc1c3ccccc3ccc21` the boiling point was 448 °C, the log10 Henry constant (atm·m³/mol) was -5.28 and the log10 biodegradation half-life (days) was 2.58. For the same compound, the log10 vapour pressure (mmHg) was -8.21 and the melting point was 258 °C.
In the case of `N#Cc1nccnc1C#N`, the melting point is reported as 132 °C.
Work on `O[C@@H]1CO[C@H]2[C@@H]1OC[C@@H]2O` yielded a melting point of 75.2 °C.
For `NN(c1ccccc1)c1ccccc1`, the log10 vapour pressure (mmHg) was -3.31 and the melting point was 50.5 °C.
In the case of `c1ccc(-c2c3ccccc3nc3ccccc23)cc1`, the boiling point is reported as 404 °C and the melting point is reported as 184 °C.
`CC(C)CCCCCOC(=O)c1ccccc1C(=O)OCCCCCC(C)C` showed a log10 Koc (L/kg) of 3.21 and a log10 vapour pressure (mmHg) of -5.26.
With `CCCC(C)I` (configuration not stated) the boiling point was 150 °C, the log10 vapour pressure (mmHg) was 1.04 and the melting point was -50 °C.
In the case of `CCCCCCCCCCCCCCCCCCCCCCCCCCCCCCCCCCCC`, the melting point is reported as 76.5 °C and the ready biodegradability is reported as “readily biodegradable”.
With `CC(C)CC(C)(C#N)N=NC(C)(C#N)CC(C)C` (configuration not stated) the ready biodegradability was “not readily biodegradable”.
`O=C(O)C1CCCN1` (racemic) gave a melting point of 205 °C.
Compound `Oc1ccc(Br)c(O)c1` has a melting point of 103 °C.
`BrCC(Br)CBr` showed a boiling point of 222 °C and a melting point of 16.9 °C.
`OC[C@@H]1CCCCN1` showed a melting point of 69 °C.
`CC(=O)C1CCc2ccccc2C1=O` (configuration not stated) showed a melting point of 56 °C.
`C[C@H](NC(=O)COC(=O)c1ccccc1)C(N)=O` showed a melting point of 202 °C.
With `Nc1ccccc1O` the ready biodegradability was “not readily biodegradable”.
For `Cc1cccc([N+](=O)[O-])c1N`, the melting point was 96 °C.
Work on `CCC(C)C(C)C(C)CC` (configuration not stated) yielded a boiling point of 162 °C.
With `Clc1cc2c(c(Cl)c1Cl)Oc1c(Cl)c(Cl)c(Cl)c(Cl)c1O2` the log10 Koa was 11.4, the log10 vapour pressure (mmHg) was -10.2 and the melting point was 264 °C.
Work on `CCC(CC(C)C)C(C)C` (configuration not stated) yielded a boiling point of 154 °C.
In the case of `Nc1ccc2c3c(cccc13)-c1ccccc1-2`, the melting point is reported as 116 °C.
For `CCCCCCCCCCCCCCCCC#N`, the boiling point was 349 °C and the melting point was 34 °C.
For `CCNc1nc(O)nc(NCC)n1`, the ready biodegradability was “not readily biodegradable”.
For `CCOC(=O)OCC`, the boiling point was 126 °C, the log10 vapour pressure (mmHg) was 1.03 and the melting point was -43 °C.
For `CCCCCCc1ccc(-c2ccc(C#N)cc2)cc1`, the ready biodegradability was “not readily biodegradable”.
For `COc1cc(Cl)c(Cl)c(Cl)c1Cl`, the melting point was 84 °C.
Work on `COC(=O)c1ccccn1` yielded a melting point of 18.7 °C.
Work on `CCC(C)C=O` (configuration not stated) yielded a melting point of 91 °C.
In the case of `CC(C)CC(=O)c1ccccc1`, the boiling point is reported as 236 °C.
For `CC(=O)O[C@@]12CO[C@@H]1C[C@H](O)[C@@]1(C)C(=O)[C@H](O)C3=C(C)[C@@H](OC(=O)[C@H](O)[C@@H](NC(=O)OC(C)(C)C)c4ccccc4)C[C@@](O)([C@@H](OC(=O)c4ccccc4)[C@H]21)C3(C)C`, the melting point was 232 °C.
With `CCCCCCCCCCBr` the boiling point was 241 °C, the log10 vapour pressure (mmHg) was -1.4 and the melting point was -29.2 °C.
Work on `SC1CCCC1` yielded a boiling point of 132 °C and a log10 vapour pressure (mmHg) of 1.06.
For `O[C@@H]1CCc2ccccc2C1`, the melting point was 15.5 °C.
`Clc1sc(Cl)c(Cl)c1Cl` showed a boiling point of 233 °C and a melting point of 30.5 °C.
For `CCCC(CCC)CCC`, the boiling point was 158 °C.
`CCCCC(CC)COC(=O)c1ccccc1C(=O)OCC(CC)CCCC` (configuration not stated) showed a boiling point of 384 °C, a log10 Koc (L/kg) of 4.94 and a log10 vapour pressure (mmHg) of -6.85. The melting point was -55 °C and the ready biodegradability was “not readily biodegradable”.
Work on `N#CCc1c[nH]c2ccccc12` yielded a melting point of 36 °C.
`NCC1CCNCC1` showed a boiling point of 200 °C and a melting point of 25 °C.
Compound `O=C1CCCCCCCCC1O` (configuration not stated) has a melting point of 42 °C.
Work on `C=CC(=O)OCC(F)(F)C(F)F` yielded a boiling point of 132 °C.
For `Cc1cccc(C)c1N(C)C`, the boiling point was 196 °C and the melting point was -36 °C.
For `O=c1oc(=O)c2cc3c(=O)oc(=O)c3cc12`, the ready biodegradability was “readily biodegradable”.
With `CCB(O)O` the melting point was 40 °C.
`CC(C)(N)CO` gave a boiling point of 166 °C, a log10 vapour pressure (mmHg) of 0 and a melting point of 25.5 °C.
Compound `COC(=O)/C=C(\C)OP(=O)(OC)OC` has a log10 vapour pressure (mmHg) of -3.91 and a melting point of 21 °C.
Compound `CC1(C)O[C@@H]2C[C@H]3[C@@H]4C[C@H](F)C5=CC(=O)C=C[C@]5(C)[C@@]4(F)[C@@H](O)C[C@]3(C)[C@]2(C(=O)CO)O1` has a melting point of 266 °C.
Compound `Cc1cccc(C(=O)Cl)c1` has a boiling point of 220 °C and a melting point of -23 °C.
With `ONc1ccccc1` the melting point was 83.5 °C.
`O=C(CO)[C@@H](O)[C@@H](O)[C@H](O)[C@H](O)CO` showed a melting point of 151 °C.
`Cc1cc(Cl)nc2ccccc12` showed a boiling point of 296 °C and a melting point of 59 °C.
In the case of `CC(=O)O[Si](C)(C)OC(C)=O`, the boiling point is reported as 165 °C and the melting point is reported as -12.5 °C.
In the case of `CC(C)CCCO`, the boiling point is reported as 152 °C.
Work on `CCCC(C)CC(C)CC` (configuration not stated) yielded a boiling point of 159 °C.
`C=CC=CCC` gave a boiling point of 73.5 °C and a log10 vapour pressure (mmHg) of 2.11.
Compound `CC=CCCC=CC` has a boiling point of 124 °C and a melting point of -76 °C.
With `O=C1OC(=O)C(F)(F)C1(F)F` the boiling point was 54.5 °C.
For `O=C=Nc1cccc(Cl)c1`, the log10 vapour pressure (mmHg) was -0.712 and the melting point was -4 °C.
For `CNC(=O)NC`, the boiling point was 269 °C, the melting point was 108 °C and the ready biodegradability was “not readily biodegradable”.
`CN(C)c1cccc2ccccc12` gave a boiling point of 280 °C.
For `CCCCCNCCCCC`, the boiling point was 202 °C, the log10 vapour pressure (mmHg) was -0.815 and the ready biodegradability was “readily biodegradable”.
`CCOC(CCCN)OCC` showed a boiling point of 196 °C.
For `CC(C)=CC=C(C)C`, the boiling point was 134 °C and the melting point was 14 °C.
Work on `O=C(c1ccccc1)c1cccs1` yielded a boiling point of 300 °C and a melting point of 56.5 °C.
Compound `Nc1cc(Cl)ccc1O` has a melting point of 140 °C.
Compound `Cc1cc(C=O)ccc1O` has a melting point of 119 °C.
Work on `CSCCl` yielded a boiling point of 105 °C.
With `FC1(F)C(F)(F)C(F)(F)C2(F)C(F)(C1(F)F)C(F)(F)C(F)(F)C1(F)C(F)(F)C(F)(F)C(F)(F)C(F)(F)C12F` (configuration not stated) the boiling point was 210 °C and the melting point was -20 °C.
Compound `CCN` has a boiling point of 16.6 °C, a log10 Henry constant (atm·m³/mol) of -4.91 and a log10 vapour pressure (mmHg) of 3.02. For the same compound, the ready biodegradability was “readily biodegradable”.
Work on `COc1ccc(/C=C/c2cc(OC)cc(=O)o2)cc1` yielded a melting point of 156 °C.
Work on `CCOP(=O)(OCC)ON1C(=O)c2cccc3cccc(c23)C1=O` yielded a melting point of 177 °C.
Compound `CCCCOc1ccc(OCCCC)cc1` has a melting point of 45.5 °C.
In the case of `c1csc(-c2ccc(-c3cccs3)s2)c1`, the melting point is reported as 93.5 °C.
Compound `CCCCCCCCC(=O)CCCCCCCC` has a boiling point of 252 °C and a melting point of 53 °C.
`C[C@H](N)[C@H](O)c1cccc(O)c1` gave a boiling point of 218 °C and a melting point of 108 °C.
For `O=[N+]([O-])c1ccc(C=NO)cc1`, the melting point was 128 °C.
In the case of `O=C1c2ccccc2C(=O)c2c(NCCO)cccc21`, the log10 vapour pressure (mmHg) is reported as -11 and the melting point is reported as 168 °C.
For `C=CC(C)(C)O`, the boiling point was 97 °C, the log10 Henry constant (atm·m³/mol) was -4.68 and the melting point was -28 °C.
In the case of `CCCCCCC(C)(C)O`, the boiling point is reported as 178 °C.
Work on `O=C(O)c1c[nH]c2ccccc12` yielded a melting point of 206 °C.

Same assay, conditions: fish
With `O=[N+]([O-])c1ccc(Cl)cc1C(F)(F)F` the log10 BCF was 1.87 and the log10 biotransformation half-life (days) was -0.36.
`COc1ccccc1[N+](=O)[O-]` showed a log10 BCF of 0.7 and a log10 biotransformation half-life (days) of -1.04.
`c1ccc2c(c1)ccc1c3ccccc3ccc21` showed a log10 biotransformation half-life (days) of 0.59.
For `Clc1cc2c(c(Cl)c1Cl)Oc1c(Cl)c(Cl)c(Cl)c(Cl)c1O2`, the log10 BCF was 3.67 and the log10 biotransformation half-life (days) was 1.21.
In the case of `CCCCCCc1ccc(-c2ccc(C#N)cc2)cc1`, the log10 BCF is reported as 3.52 and the log10 biotransformation half-life (days) is reported as 0.85.
In the case of `COc1cc(Cl)c(Cl)c(Cl)c1Cl`, the log10 BCF is reported as 3.67.
Compound `CCCCC(CC)COC(=O)c1ccccc1C(=O)OCC(CC)CCCC` (configuration not stated) has a log10 BCF of 2.77 and a log10 biotransformation half-life (days) of 0.44.
With `Clc1cc(Cl)c(-c2cc(Cl)c(Cl)c(Cl)c2Cl)c(Cl)c1` the log10 biotransformation half-life (days) was 2.51.
`CC(C)=CC=C(C)C` gave a log10 BCF of 2.32 and a log10 biotransformation half-life (days) of 0.49.
